Experimental data from US7759337B2, “Phthalazine compounds and methods of use” (Amgen Inc., priority 2005, dated 2010).
pIC50: −log10 of the molar value.

Test system: production of TNF by monocytes activated with bacterial lipopolysaccharide (LPS)
Assay: Lipopolysaccharide-activated monocyte TNF production assay
Format: cell-based
Conditions: Homo sapiens; whole blood monocyte assay (LPS induced TNF release)
How it was run: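 Adherent human PBMC-derived monocytes preincubated 60 min with nine two-fold compound dilutions, then stimulated with E. coli K532 LPS (30 ng/mL in the added medium) for 4 h at 37 °C. Supernatant TNF measured by sandwich ELISA; IC50 is the compound concentration halving TNF production, from second-order polynomial fits.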

Row | Structure (SMILES) | pIC50
1 | CC(=O)N1CCN(c2nncc3cc(-c4c(C)ccc5c(NC6CC6)noc45)ccc23)[C@@H](C)C1 [Example 390, 7-{1-[(2S)-4-acetyl-2-methylpiperazin-1-yl]phthalazin-6-yl}-N-cyclopropyl-6-methyl-1,2-benzisoxazol-3-amine] | ≥ 5.30
2 | Cc1ccc2c(N)n[nH]c2c1-c1ccc2c(N3CCOC[C@@H]3C)nncc2c1 [Example 391, 6-methyl-7-{1-[(3S)-3-methylmorpholin-4-yl]phthalazin-6-yl}-1H-indazol-3-amine] | ≥ 5.30
3 | Cc1ccc(C(=O)NC2CC2)cc1-c1ccc2c(N3C[C@@H](C)N(CC(F)(F)F)C[C@@H]3C)nncc2c1 [Example 393, N-cyclopropyl-3-{1-[(2S,5R)-2,5-dimethyl-4-(2,2,2-trifluoroethyl)piperazin-1-yl]phthalazin-6-yl}-4-methylbenzamide] | ≥ 5.30
4 | Cc1ccc(C(N)=O)cc1-c1ccc2c(N3[C@H](C)CC[C@H]3C)nncc2c1 [Example 394, 3-{1-[(2R,5R)-2,5-dimethylpyrrolidin-1-yl]phthalazin-6-yl}-4-methylbenzamide] | ≥ 5.30
5 | Cc1ccc(C(=O)NC2CC2)cc1-c1ccc2c(N3[C@H](C)CC[C@H]3C)nncc2c1 [Example 395, N-cyclopropyl-3-{1-[(2R,5R)-2,5-dimethylpyrrolidin-1-yl]phthalazin-6-yl}-4-methylbenzamide] | ≥ 5.30
6 | CNc1noc2c(-c3ccc4c(-c5ccccc5C)nncc4c3)c(C)ccc12 [Example 396, N,6-dimethyl-7-[1-(2-methylphenyl)phthalazin-6-yl]-1,2-benzisoxazol-3-amine] | ≥ 5.30
7 | CNc1noc2c(-c3ccc4c(N5CCOC[C@@H]5C)nncc4c3)c(C)ccc12 [Example 397, N,6-dimethyl-7-(1-((S)-3-methylmorpholino)phthalazin-6-yl)benzo[d]isoxazol-3-amine] | ≥ 5.30
8 | Cc1ccccc1-c1ccc2c(N3CCOCC3c3ccc(F)cc3)nncc2c1 (centres unmarked) [Example 398, 1-[3-(4-fluorophenyl)morpholin-4-yl]-6-(2-methylphenyl)phthalazine] | ≥ 5.30
9 | CNc1noc2c(-c3ccc4c(N[C@@H](C)COC)nncc4c3)c(C)ccc12 [Example 399, N-[(1S)-2-methoxy-1-methylethyl]-6-[6-methyl-3-(methylamino)-1,2-benzisoxazol-7-yl]phthalazin-1-amine] | ≥ 5.30
10 | C[C@H]1COCCN1c1nncc2cc(-c3c(Cl)ccc4c(NCC(F)(F)F)noc34)ccc12 [Example 400, 6-chloro-7-{1-[(3S)-3-methylmorpholin-4-yl]phthalazin-6-yl}-N-(2,2,2-trifluoroethyl)-1,2-benzisoxazol-3-amine] | ≥ 5.30
11 | C[C@H]1COCCN1c1nncc2cc(-c3c(Cl)ccc4c(NC5CC5)noc34)ccc12 [Example 401, 6-chloro-N-cyclopropyl-7-{1-[(3S)-3-methylmorpholin-4-yl]phthalazin-6-yl}-1,2-benzisoxazol-3-amine] | ≥ 5.30
12 | CC(C)Nc1noc2c(-c3ccc4c(N5CCOC[C@@H]5C)nncc4c3)c(Cl)ccc12 [Example 402, 6-chloro-N-isopropyl-7-{1-[(3S)-3-methylmorpholin-4-yl]phthalazin-6-yl}-1,2-benzisoxazol-3-amine] | ≥ 5.30
13 | CC(=O)Nc1noc2c(-c3ccc4c(N5CCOC[C@@H]5C)nncc4c3)c(C)ccc12 [Example 403, N-(6-methyl-7-{1-[(3S)-3-methylmorpholin-4-yl]phthalazin-6-yl}-1,2-benzisoxazol-3-yl)acetamide] | ≥ 5.30
14 | Cc1ccc(C(=O)NC(C)C)cc1-c1ccc2c(NC(C)C)nncc2c1 [Example 404, N-isopropyl-3-[1-(isopropylamino)phthalazin-6-yl]-4-methylbenzamide] | ≥ 5.30
15 | Cc1ccc(C(=O)NC(C)C)cc1-c1ccc2c(N3CCOCC3)nncc2c1 [Example 405, N-isopropyl-4-methyl-3-(1-morpholin-4-ylphthalazin-6-yl)benzamide] | ≥ 5.30
16 | Cc1ccc(C(N)=O)cc1-c1ccc2c(Oc3ccccc3)nncc2c1 [Example 406, 4-methyl-3-(1-phenoxyphthalazin-6-yl)benzamide] | ≥ 5.30
17 | Cc1ccc(C(N)=O)cc1-c1ccc2c(NCCO)nncc2c1 [Example 407, 3-{1-[(2-hydroxyethyl)amino]phthalazin-6-yl}-4-methylbenzamide] | ≥ 5.30
